Assays:
[1] = Plasma total radioactivity pharmacokinetics after single oral 30 mg/kg [14C]-zapnometinib, Sprague-Dawley rats (Group 1); format: in vivo, rat
Protocol: Oral doses of [^14C]-zapnometinib were administered as a suspension in 5% DMSO (v/v), 30% PEG 400 (v/v) and 7.5% (w/v) Captisol in water at a dose level of 30 mg/kg to male and female rats by gastric intubation at a dose volume of 4 ml/kg body weight. The selected dose level (30 mg/kg) was below the no observed adverse effect level (100 mg/kg), the formulation was selected based on data obtained in other nonclinical studies. The radioactive dose administered to each animal was quantified from the weight (excretion studies only) or volume of dosing formulation given, and its mean measured radioactivity concentration. The weight of test compound administered to each rat was determined from the radioactive dose administered and the specific activity of the test material.
After single oral doses of [^14C]-zapnometinib to three male and three female rats, a blood sample (ca 220 µL) was taken from each animal, via the jugular or tail vein at each of the following time points: 0.25, 0.5, 1, 2, 4, 8, 24, 48, 72, 96, 120 and 168 h after dose administration. All blood samples were delivered into K2EDTA tubes and centrifuged (ca 2000 ×g at 4°C for 10 min) to obtain plasma; blood cells were discarded. After collection of the terminal sample, rats were killed by cervical dislocation and the carcasses discarded.
Radioactivity was measured by liquid scintillation analysis using Wallac® 1409 automatic liquid scintillation counters. Samples were prepared according to the company’s SOP (see Supplementary Methods). Briefly, replicate weighed samples were mixed with Ultima Gold™ scintillation cocktail (PerkinElmer, United States) for the measurement of radioactivity. Radioactivity in amounts less than twice that of the background concentration in the sample under investigation was below the limit of accurate quantification (BLQ).
Weight, volume, and radioactivity concentration (liquid scintillation analysis) results relating to the analysis of biological samples generated during this study were acquired and processed using DEBRA, a Laboratory Information Management System (v 5.5.4). Pharmacokinetic parameters were calculated using the computer program Phoenix™ WinNonlin version 8.3 (Pharsight Corporation, United States). Areas under the mean plasma radioactivity concentration-time curves up to the time of the last quantifiable sample (AUC0-t) were estimated by the linear trapezoidal rule. Areas under the mean plasma radioactivity concentration-time curves to infinite time (AUC0-inf) were calculated using the expression: AUC0-inf = AUC0-t + Ct/λz, where Ct is the last measurable concentration and λz is the elimination rate constant estimated using log-linear regression during the terminal elimination phase. Statistical evaluation was limited to basic expressions of variation such as means and standard deviation.

[2] = Metabolite profiling of pooled feces extracts by radio-HPLC (Group 2); format: in vivo, rat; conditions: for Proportion of feces sample radioactivity: 24-48 h
Protocol: Metabolite profiling was performed by HPLC analysis according to the company’s SOP of plasma (Group 3), urine (Group 2) and feces (Group 2) samples. Briefly, for metabolite profiling and identification, radioactivity (cpm) was measured in HPLC eluent fractions that had previously been collected at 12 s intervals for the duration of the run (65 min) into 96-well Deep Well LumaPlates and dried in a centrifugal evaporator. A Microbeta2 scintillation counter was used to count each plate, with wells simultaneously counted for 2 min, after an initial 5 min delay. A subsample of plasma was analyzed (ca 2 ml) taken from individual animals to provide representative samples, for each sex, at 2, 8 and 168 h post dose (n = 6). Equal proportions of the total urine weight voided from Group 2 animals was pooled to provide representative samples for each sex at 0–6 h, 6–24 h and 24–48 h post dose (n = 6). Equal proportions of the total feces homogenate generated from the samples voided by the three rats (Group 2) were pooled to provide representative samples for each sex at 0–24 and 24–48 h post dose ([…]). Sample preparation was carried out due to the company’s SOPs (see Supplementary Methods). The extractability was ≥95.0% (95.0–100%) TRR (Total Radioactive Residue) for plasma and ≥88.3% (88.3%–91.3%) TRR for feces. As reference, a standard solution of zapnometinib (0.1 mg/ml in acetonitrile) was used. To assess HPLC method suitability, a column recovery was assessed on each representative sample (one per matrix). The recovery of radioactivity from the HPLC column was determined by collecting the column eluent, following an injection of a representative sample (one per matrix), and determining the radioactive content by submitting aliquots for LSC analysis. The results of these analyses were between 93.8%–105.1% column recoveries.
Next, radioactive metabolic components of zapnometinib in urine, plasma and feces extracts were isolated and profiled. The components were quantified by fraction collection/scintillation analysis, as appropriate to the radioactivity concentrations. Mass spectroscopy was used to propose identities of the major circulatory and excreted metabolites, and to correlate the metabolites detected in the different matrices. Components identified by LC-MS/MS were related to the quantified HPLC analysis by comparison of related radiochromatograms and comparison of elution order. Representative HPLC radiochromatograms of pooled feces extracts collected during 0–24 and 24–48 h post dose from male and female rats (which reveal the main metabolites) were qualitatively similar with some minor sex differences (Figure 3). […]
times with the following solvents following the same procedure: Extract 2 – Acetonitrile/methanol 4:1 (v/v); Extract 3 – Acetonitrile/Water 1:1 (v/v). Duplicate weighed aliquots of each supernatant (ca 0.1 mL) were mixed directly with Ultima Gold scintillation cocktail for measurement of radioactivity concentrations. The extracted residue was allowed to air dry and the total weight was recorded. Duplicate weighed portions (ca 0.05g) were taken for radioassay after oxidation. The extracts were combined and concentrated under a constant stream of nitrogen gas to near dryness and reconstituted in acetonitrile/0.1% aqueous formic acid, 1:1 (v/v) by vortex mixing, sonication and centrifugation at 10000 × g for 5 min at 4°C.
The concentrates were weighed, and duplicate weighed aliquots (0.025 – 0.05 mL) taken for measurement of radioactivity to calculate recovery following concentration. An aliquot of each concentrated extract was injected into the HPLC. […]
(100 mL) in purified water (600 mL) and methanol (300 mL). After measurement of total sample weight (as appropriate), replicate portions of diluted dose solutions (ca 0.1 mL), plasma (ca 0.05 – 0.25 mL), urine (ca 0.05 – 0.25 mL), expired air trap solution (ca 1 mL) and cage wash (ca 1 mL) were mixed directly with Ultima Gold scintillation cocktail (5 mL; 15 mL for […]

In the case of O=C(O)c1ccc(F)c(F)c1Nc1ccc(I)cc1Cl [zapnometinib, 2-(2-Chloro-4-iodophenylamino)-3,4-difluorobenzoic acid], the “Mean plasma radioactivity concentration” value ([1]; 48 h post dose, females) is reported as 0.650 μg equivs/ml, the “Mean plasma radioactivity concentration” value ([1]; 48 h post dose, males) is reported as 0.724 μg equivs/ml and the “Mean plasma radioactivity concentration” value ([1]; 168 h post dose, females) is reported as 0.049 μg equivs/ml. For the same compound, the “Mean plasma radioactivity concentration” value ([1]; 168 h post dose, males) was 0.054 μg equivs/ml, the “Plasma radioactivity at 168 h as % of Cmax” value ([1]; females) was ~0.04% and the “Plasma radioactivity at 168 h as % of Cmax” value ([1]; males) was ~0.06%. The “AUC0-t females versus males” value ([1]; total plasma radioactivity) was 1.4 fold, the “Cmax females versus males” value ([1]; total plasma radioactivity) was 1.5 fold and the “Amount in pooled feces extracts” value ([2]; 0-24 hours, female rats) was 19.87 % Dose. For the same compound, the “Amount in pooled feces extracts” value ([2]; 0-24 hours, male rats) was 19.28 % Dose, the “Proportion of feces sample radioactivity” value ([2]; female rats) was 28.5 % sample radioactivity and the “Proportion of feces sample radioactivity” value ([2]; male rats) was 21.5 % sample radioactivity. For the same compound, the “Amount in pooled feces extracts” value ([2]; 24-48 hours, female rats) was 6.30 % Dose, the “Amount in pooled feces extracts” value ([2]; 24-48 hours, male rats) was 2.15 % Dose and the “Amount in pooled feces extracts” value ([2]; Total (0-48 hours), female rats) was 26.17 % Dose.

Source: PMC9760738, “Pharmacokinetics, absorption, distribution, metabolism and excretion of the MEK inhibitor zapnometinib in rats” (Frontiers in Pharmacology, 2022)
